target: T1, human soluble guanylate cyclase alpha 1 and beta 1 subunits (sGC) (Homo sapiens, UniProt Q02108+Q02153); experiment: sGC cellular activator assay (cGMP, HTRF); type: cell-based; conditions: CHO cells stably expressing human sGC alpha 1/beta 1, preincubated with 40 microM ODQ; cGMP readout; assay run with and without 50% human serum, Table 2 does not say which
T1 construct: expressed in transfected cells; host or cells: Chinese hamster ovary (CHO) cells, stably transfected
T1 sequence (Q02108 1-690): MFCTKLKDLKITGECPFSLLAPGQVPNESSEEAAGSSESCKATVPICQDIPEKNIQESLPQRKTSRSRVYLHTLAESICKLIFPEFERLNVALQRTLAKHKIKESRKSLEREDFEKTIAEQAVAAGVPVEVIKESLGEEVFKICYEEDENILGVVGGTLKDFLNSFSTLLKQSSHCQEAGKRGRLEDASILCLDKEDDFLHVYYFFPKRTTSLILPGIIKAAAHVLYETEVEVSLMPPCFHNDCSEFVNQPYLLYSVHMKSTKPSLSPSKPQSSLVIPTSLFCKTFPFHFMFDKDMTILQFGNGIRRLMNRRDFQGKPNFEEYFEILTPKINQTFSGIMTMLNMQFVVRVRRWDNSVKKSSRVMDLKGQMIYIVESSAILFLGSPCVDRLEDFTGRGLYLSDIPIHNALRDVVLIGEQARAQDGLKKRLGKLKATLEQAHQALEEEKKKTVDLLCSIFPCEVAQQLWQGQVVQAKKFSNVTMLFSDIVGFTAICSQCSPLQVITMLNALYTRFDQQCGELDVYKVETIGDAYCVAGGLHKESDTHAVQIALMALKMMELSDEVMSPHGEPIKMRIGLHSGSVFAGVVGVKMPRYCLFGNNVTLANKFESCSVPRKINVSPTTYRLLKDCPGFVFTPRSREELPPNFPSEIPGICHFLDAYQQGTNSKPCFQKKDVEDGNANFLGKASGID
T1 sequence (Q02153 1-619): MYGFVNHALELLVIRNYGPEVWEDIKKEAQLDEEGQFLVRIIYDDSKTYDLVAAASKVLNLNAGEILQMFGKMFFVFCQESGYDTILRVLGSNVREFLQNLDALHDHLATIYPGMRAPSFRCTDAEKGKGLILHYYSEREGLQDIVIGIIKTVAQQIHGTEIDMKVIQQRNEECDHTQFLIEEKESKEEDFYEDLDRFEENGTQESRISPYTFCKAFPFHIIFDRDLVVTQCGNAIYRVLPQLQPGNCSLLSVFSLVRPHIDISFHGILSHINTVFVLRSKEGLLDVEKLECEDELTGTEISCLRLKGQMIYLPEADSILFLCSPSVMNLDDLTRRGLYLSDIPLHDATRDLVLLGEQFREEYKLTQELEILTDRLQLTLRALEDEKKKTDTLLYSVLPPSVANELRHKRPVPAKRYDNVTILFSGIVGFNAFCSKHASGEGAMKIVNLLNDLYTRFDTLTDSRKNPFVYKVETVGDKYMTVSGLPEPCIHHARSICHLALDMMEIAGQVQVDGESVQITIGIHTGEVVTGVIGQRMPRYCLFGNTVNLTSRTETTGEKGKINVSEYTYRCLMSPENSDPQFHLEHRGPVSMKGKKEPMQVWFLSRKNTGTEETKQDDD
In short: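 First, CHO-sGC (human α1β1) cells get 1 h ODQ at 40 microM with IBMX and 0.1% BSA. Finally, cGMP is quantified by HTRF and EC50 computed.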

SMILES | EC50 [nM]
CCOc1c(C(=O)O)cnn1-c1cccc(-c2cccc(C)c2OCc2ccc3c(c2OC)CCN(C2COC2)C3)n1 [Compound 221] | 210
CCOc1c(C(=O)O)cnn1-c1cccc(-c2cccc(C)c2OCc2ccc3c(c2C)CCN(C[C@H]2COCCO2)CC3)n1 [Compound 212] | 36
CCOc1c(C(=O)O)cnn1-c1cccc(-c2cccc(C)c2OCc2ccc3c(c2C)CCN(C[C@H]2CCCCO2)CC3)n1 [Compound 214] | 30
CCOc1c(C(=O)O)cnn1-c1cccc(-c2cccc(C)c2OCc2ccc3c(c2C)CCN(C[C@H]2CCOC2)C3)n1 [Compound 193] | 12
COc1c(C(=O)O)cnn1-c1cccc(-c2cccc(C)c2OCc2ccc3c(c2C)CCN(CC2(C)COC2)C3)n1 [Compound 28] | 13
CCOc1c(C(=O)O)cnn1-c1cccc(-c2cccc(C)c2OCc2ccc3c(c2C)CCN(C2CCOCC2)C3=O)n1 [Compound 194] | 87
CCOc1c(C(=O)O)cnn1-c1cccc(-c2cccc(C)c2OCc2ccc3c(c2C)CCN(C[C@H]2CCCO2)CC3)n1 [Compound 233] | 11
COc1c(C(=O)O)cnn1-c1cccc(-c2cccc(C)c2OCc2ccc3c(c2)CCN(C2CCOC2)C3)n1 (stereo not shown) [Compound 15] | 28
COCC(C)N1CCc2cc(COc3c(C)cccc3-c3cccc(-n4ncc(C(=O)O)c4OC)n3)ccc2C1 (stereo not shown) [Compound 23] | 52
COc1c(C(=O)O)cnn1-c1cccc(-c2cccc(C)c2OCc2ccc3c(c2Cl)CCN(CC2(C)COC2)C3)n1 [Compound 19] | 17
COCC(C)N1CCc2cc(COc3c(C)cccc3-c3cccc(-n4ncc(C(=O)O)c4OC)n3)cc(C)c2C1 (stereo not shown) [Compound 244] | 23
COc1c(C(=O)O)cnn1-c1cccc(-c2cccc(C)c2OCc2ccc3c(c2C)CCN([C@@H]2CCOC2)CC3)n1 [Compound 207] | 9.2
COc1c(C(=O)O)cnn1-c1cccc(-c2ccccc2OCc2ccc3c(c2)CCN(C2CCOCC2)C3)n1 [Compound 209] | 200
CCOc1c(C(=O)O)cnn1-c1cccc(-c2cccc(C)c2OCc2ccc3c(c2C)CCN(C[C@H]2CCO2)CC3)n1 [Compound 226] | 12
CCOc1c(C(=O)O)cnn1-c1cccc(-c2cccc(C)c2OCc2ccc3c(c2C)CCN([C@H]2CCOC2)CC3)n1 [Compound 225] | 10
CCOc1c(C(=O)O)cnn1-c1cccc(-c2cccc(C)c2OCc2cc(C)c3c(c2)CCN([C@H]2CCCOC2)C3)n1 [Compound 197] | 19
CCOc1c(C(=O)O)cnn1-c1cccc(-c2cccc(C)c2OCc2cc(C)c3c(c2)CCN(CC2COCCO2)C3)n1 (stereo not shown) [Compound 243] | 16
CCOc1c(C(=O)O)cnn1-c1cccc(-c2cccc(C)c2OCc2ccc3c(c2C)CCN(C[C@H]2CCCCO2)C3)n1 [Compound 232] | 9.5
COc1c(C(=O)O)cnn1-c1cccc(-c2cccc(C)c2OCc2ccc3c(c2C)CCN(C2CCOCC2)C3)n1 [Compound 27] | 14
CCOc1c(C(=O)O)cnn1-c1cccc(-c2cccc(C)c2OCc2ccc3c(c2OC)CCN(C2CCOCC2)C3)n1 [Compound 220] | 150

Now those with a lower EC50, led by results:

EC50 [nM] | SMILES
3.5 | COc1c(C(=O)O)cnn1-c1cccc(-c2cccc(C)c2OCc2ccc3c(c2C)CCN(CC2CC(F)(F)C2)C3)n1 [Compound 29]
5 | COc1c(C(=O)O)cnn1-c1cccc(-c2cccc(C)c2OCc2ccc3c(c2)CCN(CC2CC(F)(F)C2)C3)n1 [Compound 26]
4.4 | COc1c(C(=O)O)cnn1-c1cccc(-c2cccc(C)c2OCc2ccc3c(c2C)CCN(C[C@H]2COCCO2)CC3)n1 [Compound 203]
8 | COc1c(C(=O)O)cnn1-c1cccc(-c2cccc(C)c2OCc2ccc3c(c2Cl)CCN(C2CCOCC2)C3)n1 [Compound 18]
4.6 | CCc1cc(COc2c(C)cccc2-c2cccc(-n3ncc(C(=O)O)c3OC)n2)cc2c1CN(C1COC1)CC2 [Compound 249]
7.9 | COc1c(C(=O)O)cnn1-c1cccc(-c2cccc(C)c2OCc2cc(C)c3c(c2)CCN(CC2COCCO2)C3)n1 (stereo not shown) [Compound 240]
5.1 | COc1c(C(=O)O)cnn1-c1cccc(-c2cccc(C)c2OCc2ccc3c(c2C)CCN(C2CCCOC2)C3)n1 (stereo not shown) [Compound 238]
5.3 | COc1c(C(=O)O)cnn1-c1cccc(-c2cccc(C)c2OCc2ccc3c(c2C)CCN(C[C@@H]2CCCCO2)C3)n1 [Compound 198]
3.9 | COc1c(C(=O)O)cnn1-c1cccc(-c2cccc(C)c2OCc2cc(F)c3c(c2)CCN(C[C@H]2CCCCO2)C3)n1 [Compound 229]
4.9 | COc1c(C(=O)O)cnn1-c1cccc(-c2cccc(C)c2OCc2cc(C)c3c(c2)CCN(C2CCCOC2)C3)n1 (stereo not shown) [Compound 237]
8.6 | COc1c(C(=O)O)cnn1-c1cccc(-c2cccc(C)c2OCc2ccc3c(c2)CN(CC2COCCO2)C3)n1 (stereo not shown) [Compound 247]

Source: patent US8906904B2, “Alkoxy pyrazoles as soluble guanylate cyclase activators” (Boehringer Ingelheim International GmbH, priority 2012, dated 2014)
